Literature values as cited in US9072786B2, “Method of manufacturing an implantable device” (Endo Pharmaceuticals Solutions Inc., priority 2008, dated 2015).

Experiments:
[1] = hydrophilic-lipophilic balance of the surfactant
[2] = concentration of surfactant at which micelles form

Compound | HLB [1] | CMC [2] [mM]
Sucrose monolaurate | ~8 | 0.2
CCCCCCCC/C=C\CCCCCCCC(=O)OCCOCC(OCCO)C1OCC(OCCO)C1OCCO (stereo not shown) [Tween 80] | 15 | 0.012
